Reference: DBAASP
≈ marks a conversion by molar mass, not a printed value. Values belong to the compound of their own block, whether it stands above or below them.

Assays:
Test in all cases: ≥ marks a high value that may be exact or a test limit, other limits are often not marked, values filed in µg/mL are converted to µM
[1] = system: Staphylococcus aureus ATCC 43300
Vibrio cholerae CUN 09 = system: Vibrio cholerae CUN 09
[2] = system: Staphylococcus aureus ATCC 25923
[3] = system: Pseudomonas aeruginosa ATCC 27853
[4] = system: Listeria monocytogenes EGD
[5] = system: Escherichia coli ATCC 43827
[6] = system: Acinetobacter baumannii ATCC BAA-1605
[7] = system: Staphylococcus aureus ATCC 33591
[8] = system: Escherichia coli ATCC 25922
[9] = system: Pseudomonas aeruginosa ATCC 9027
[10] = system: Pseudomonas aeruginosa CCARM 2095
[11] = system: Staphylococcus aureus CCARM 3089
[12] = system: Enterococcus faecium ATCC 51559
[13] = system: Bacillus subtilis KCTC 3068
[14] = system: Pseudomonas aeruginosa KCTC 1637
[15] = system: Staphylococcus aureus CCARM 3095
[16] = system: Salmonella typhimurium KCTC 1926
[17] = system: Staphylococcus epidermidis KCTC 1917
[18] = system: Pseudomonas aeruginosa CCARM 2109
[19] = system: Staphylococcus aureus CCARM 3090
[20] = system: Candida parapsilosis ATCC 20224
[21] = system: Candida tropicalis ATCC 20240
[22] = system: Candida albicans ATCC 2048
Candida krusei ATCC 6258 = system: Candida krusei ATCC 6258
[23] = system: Candida glabrata ATCC 90525
[24] = system: Trichoderma viride KCTC 16992
[25] = system: Fusarium verticillioides KCTC 6149
[26] = system: Trichophyton rubrum KCTC 6345
[27] = system: Colletotrichum gloeosporioides KCTC 6169
[28] = system: Candida albicans CCARM 14001
[29] = system: Fusarium oxysporum KCTC 16909
[30] = system: Candida albicans KCTC 7270
[31] = system: Trichoderma virens KCTC 16924
[32] = system: Candida krusei CCARM 14017
[33] = system: Candida albicans CCARM 14004
[34] = system: Fusarium solani KCTC 6326
[35] = system: Candida albicans CCARM 14020
[36] = system: Fusarium graminearum KCTC 16656
[37] = system: Candida parapsilosis CCARM 14016
[38] = system: Candida albicans CCARM 14007
[39] = system: Aspergillus flavus KCTC 6905
[40] = system: Staphylococcus aureus NCTC 10788
[41] = system: Staphylococcus aureus ATCC 12493
[42] = system: Escherichia coli NCTC 10418
[43] = system: Candida albicans NCTC 1467
[44] = system: Enterococcus faecalis NCTC 12697

MIC [1]: 6.05 µM (≈ 16 µg/mL)
SMILES: CC(C)C[C@H](NC(=O)[C@H](CCCCN)NC(=O)CNC(=O)[C@H](CCCCN)NC(=O)[C@H](Cc1ccccc1)NC(=O)[C@H](CCCCN)NC(=O)[C@H](Cc1c[nH]c2ccccc12)NC(=O)[C@H](CCCN=C(N)N)NC(=O)[C@H](Cc1ccccc1)NC(=O)[C@H](CCCN=C(N)N)NC(=O)[C@H](CCCN=C(N)N)NC(=O)[C@H](Cc1ccc(O)cc1)NC(=O)[C@H](CCCCN)NC(=O)[C@H](CCCCN)NC(=O)[C@H](CS)NC(=O)CN)C(=O)N[C@@H](Cc1c[nH]c2ccccc12)C(=O)N[C@@H](CC(C)C)C(=O)N[C@@H](Cc1c[nH]c2ccccc12)C(=O)NCC(N)=O [GCKKYRRFRWKFKGKLWLWG]
MIC (Vibrio cholerae CUN 09): 12.1 µM (≈ 32 µg/mL)

MIC [2]: 128 µM (≈ 313 µg/mL)
MIC [3]: 128 µM (≈ 313 µg/mL)
MIC [4]: ≥ 128 µM
MIC [5]: ≥ 209 µM
MIC [6]: ≥ 105 µM
MIC [7]: ≥ 209 µM
MIC [8]: 128 µM (≈ 313 µg/mL)
MIC [9]: 209 µM (≈ 512 µg/mL)
SMILES: CC[C@H](C)[C@H](NC(=O)[C@H](Cc1ccccc1)NC(=O)[C@H](CCCCN)NC(=O)[C@H](CC(N)=O)NC(=O)[C@H](CC(C)C)NC(=O)[C@H](CCC(N)=O)NC(=O)CN)C(=O)N[C@@H](CCCCN)C(=O)N[C@@H](CCCCN)C(=O)N[C@@H](C)C(=O)N[C@@H](CCC(N)=O)C(=O)N[C@@H](CCCN=C(N)N)C(=O)N[C@@H](CCCCN)C(=O)N[C@@H](Cc1ccccc1)C(=O)N[C@@H](Cc1cnc[nH]1)C(=O)N[C@@H](CCC(=O)O)C(=O)N[C@@H](CCCCN)C(=O)N[C@@H](Cc1ccccc1)C(=O)N[C@@H](C)C(=O)N[C@@H](CCCCN)C(N)=O [GQLNKFIKKAQRKFHEKFAK]

MIC [10]: 4 µM (≈ 9.43 µg/mL)
MIC [11]: 8 µM (≈ 18.9 µg/mL)
MIC [12]: 8 µM (≈ 18.9 µg/mL)
MIC [13]: 8 µM (≈ 18.9 µg/mL)
MIC [14]: 16 µM (≈ 37.7 µg/mL)
MIC [15]: 8 µM (≈ 18.9 µg/mL)
MIC [16]: 4 µM (≈ 9.43 µg/mL)
MIC [17]: 8 µM (≈ 18.9 µg/mL)
MIC [18]: 16 µM (≈ 37.7 µg/mL)
MIC [19]: 8 µM (≈ 18.9 µg/mL)
SMILES: CC[C@H](C)[C@H](NC(=O)[C@H](Cc1ccccc1)NC(=O)[C@H](CCCN=C(N)N)NC(=O)[C@@H](N)CCCCN)C(=O)N[C@@H](CCCCN)C(=O)N[C@@H](Cc1c[nH]c2ccccc12)C(=O)N[C@@H](Cc1ccc(O)cc1)C(=O)N[C@@H](CC(N)=O)C(=O)N[C@@H](C)C(=O)N[C@@H](Cc1c[nH]c2ccccc12)C(=O)N[C@@H](CC(N)=O)C(=O)N[C@@H](CCC(=O)O)C(=O)N[C@@H](CCCCN)C(=O)N[C@@H](CCCN=C(N)N)C(=O)N[C@@H](CCCN=C(N)N)C(=O)N[C@H](C(=O)N[C@@H](Cc1ccc(O)cc1)C(N)=O)C(C)C [KRFIKWYNAWNEKRRVY]

MIC [20]: ≥ 130 µM
MIC [21]: ≥ 73 µM
MIC [22]: ≥ 130 µM
MIC (Candida krusei ATCC 6258): ≥ 130 µM
MIC [23]: ≥ 110 µM
SMILES: CC[C@H](C)[C@H](NC(=O)[C@H](CO)NC(=O)[C@H](CC(C)C)NC(=O)[C@@H](NC(=O)[C@H](CCCN=C(N)N)NC(=O)[C@@H](N)CCC(=O)O)[C@@H](C)CC)C(=O)N[C@@H](CC(C)C)C(=O)N[C@@H](CCCN=C(N)N)C(=O)N[C@@H](Cc1cnc[nH]1)C(=O)N[C@@H](CCC(N)=O)C(=O)N[C@@H](CC(N)=O)C(=O)N[C@@H](CC(C)C)C(=O)N[C@@H](CC(C)C)C(=O)N[C@@H](CCCCN)C(=O)N[C@@H](CCC(=O)O)C(=O)O [ERILSILRHQNLLKE]

MIC [24]: 2 µM (≈ 4.76 µg/mL)
MIC [25]: 2 µM (≈ 4.76 µg/mL)
MIC [26]: 8 µM (≈ 19 µg/mL)
MIC [27]: 1 µM (≈ 2.38 µg/mL)
MIC [28]: 16 µM (≈ 38 µg/mL)
MIC [29]: 2 µM (≈ 4.76 µg/mL)
MIC [30]: 16 µM (≈ 38 µg/mL)
MIC [31]: 8 µM (≈ 19 µg/mL)
MIC [32]: 4 µM (≈ 9.51 µg/mL)
MIC [33]: 16 µM (≈ 38 µg/mL)
MIC [34]: 2 µM (≈ 4.76 µg/mL)
MIC [35]: 16 µM (≈ 38 µg/mL)
MIC [36]: 8 µM (≈ 19 µg/mL)
MIC [37]: 16 µM (≈ 38 µg/mL)
MIC [38]: 16 µM (≈ 38 µg/mL)
MIC [39]: 4 µM (≈ 9.51 µg/mL)
SMILES: NCCCC[C@H](NC(=O)[C@H](CCCCN)NC(=O)[C@H](Cc1cnc[nH]1)NC(=O)[C@H](CCCCN)NC(=O)[C@H](CCCCN)NC(=O)[C@H](Cc1cnc[nH]1)NC(=O)[C@H](CCCCN)NC(=O)[C@H](CCCCN)NC(=O)[C@H](Cc1cnc[nH]1)NC(=O)[C@H](CCCCN)NC(=O)[C@H](CCCCN)NC(=O)[C@H](Cc1cnc[nH]1)NC(=O)[C@H](CCCCN)NC(=O)[C@H](CCCCN)NC(=O)[C@H](Cc1cnc[nH]1)NC(=O)[C@H](CCCCN)NC(=O)[C@H](CCCCN)NC(=O)[C@@H](N)Cc1cnc[nH]1)C(N)=O [HKKHKKHKKHKKHKKHKK]

MIC [3]: > 512 µM
MIC [40]: ≥ 32 µM
MIC [41]: ≥ 256 µM
MIC [42]: ≥ 32 µM
MIC [43]: ≥ 256 µM
MIC [44]: ≥ 128 µM
SMILES: CC[C@H](C)[C@H](NC(=O)CN)C(=O)N[C@@H](CCSC)C(=O)N[C@@H](CC(=O)O)C(=O)N[C@H](C(=O)N[C@H](C(=O)N[C@@H](CCCCN)C(=O)N[C@@H](CC(N)=O)C(=O)N[C@@H](C)C(=O)N[C@@H](C)C(=O)N[C@@H](CCCCN)C(=O)N[C@@H](CC(N)=O)C(=O)N[C@@H](CC(C)C)C(=O)N[C@@H](C)C(=O)NCC(=O)N[C@@H](CCC(N)=O)C(=O)N[C@@H](CC(C)C)C(=O)N[C@@H](CC(C)C)C(=O)N[C@@H](CC(=O)O)C(=O)N[C@@H](CCCCN)C(=O)N[C@@H](CC(C)C)C(=O)N[C@@H](CCCCN)C(=O)N[C@H]1CSSC[C@@H](C(=O)O)NC(=O)[C@H](C)NC(=O)[C@H]([C@@H](C)O)NC(=O)[C@H]([C@@H](C)CC)NC(=O)[C@H](CCCCN)NC1=O)C(C)C)[C@@H](C)O [GIMDTVKNAAKNLAGQLLDKLKCKITAC]
